ChEMBL document CHEMBL1144500, “Design and synthesis of Rho kinase inhibitors (II)” (Bioorg Med Chem, 2007)
Converted amounts (≈) assume the structure as drawn.

Test system: not listed separately
Test: Solubility in 0.086N HCl containing 34 mM NaCl
Type: physicochemical
`c1ccc(CN2CCC(Nc3ccc4[nH]ncc4c3)CC2)cc1` showed a solubility of 881 µg/mL (≈ 2880 µM).
`O=C(NCc1c(F)cccc1F)Nc1ccc2[nH]ncc2c1` gave a solubility of 5 µg/mL (≈ 16.5 µM).

Test system: not listed separately
Test: Solubility in 50 mM KH2PO4 containing 24 mM NaOH
Type: physicochemical
In the case of `c1ccc(CN2CCC(Nc3ccc4[nH]ncc4c3)CC2)cc1`, the solubility is reported as 495 µg/mL (≈ 1620 µM).
For `O=C(NCc1c(F)cccc1F)Nc1ccc2[nH]ncc2c1`, the solubility was < 1 µg/mL.

Target: Rho-associated protein kinase (Homo sapiens, UniProt O75116+Q13464)
In the case of `CCCN1CCCC(Nc2ccc3[nH]ncc3c2)C1` (stereo not drawn), the IC50 is reported as 780 nM.
For `O=C(NC1CCN(Cc2ccccc2)CC1)c1ccc2[nH]ncc2c1`, the IC50 was 540 nM.
With `c1ccc(CN[C@H]2CC[C@H](Nc3ccc4[nH]ncc4c3)CC2)cc1` the IC50 was 520 nM.
For `CN(CCNc1ccc2[nH]ncc2c1)Cc1ccccc1`, the IC50 was 7900 nM.
With `Fc1ccc(CN2CCC(CNc3ccc4[nH]ncc4c3)CC2)cc1` the IC50 was > 10000 nM.
With `Cn1ncc2cc(NC3CCCN(Cc4ccccc4)C3)ccc21` (stereo not drawn) the IC50 was > 10000 nM.
`c1c[nH]c(CN2CCCC(Nc3ccc4[nH]ncc4c3)C2)c1` (stereo not drawn) showed an IC50 of 11 nM.
For `c1cc(CN2CCCC(Nc3ccc4[nH]ncc4c3)C2)c[nH]1` (stereo not drawn), the IC50 was > 1000 nM.
Work on `Fc1ccc(CN2CCCC(Nc3ccc4[nH]ncc4c3)C2)cc1` (stereo not drawn) yielded an IC50 of 25 nM.
Molecule `Fc1ccc(CN2CCCC(Nc3ccc4[nH]ncc4c3)C2)cc1F` (stereo not drawn) has an IC50 of 10 nM.
For `Nc1ccc(CN2CCCC(Nc3ccc4[nH]ncc4c3)C2)cc1` (stereo not drawn), the IC50 was 10 nM.
Molecule `Clc1ccccc1CN1CCC(Nc2ccc3[nH]ncc3c2)CC1` has an IC50 of 440 nM.
Molecule `Clc1cccc(CN2CCC(Nc3ccc4[nH]ncc4c3)CC2)c1` has an IC50 of 290 nM.
`c1ccc(CN2CCCC(Nc3ccc4[nH]ncc4c3)C2)nc1` (stereo not drawn) showed an IC50 of 240 nM.
`c1cncc(CN2CCCC(Nc3ccc4[nH]ncc4c3)C2)c1` (stereo not drawn) showed an IC50 of 72 nM.
Molecule `c1ccc(CN2CCCC(Nc3ccc4[nH]ncc4c3)C2)cc1` (stereo not drawn) has an IC50 of 20 nM.
Molecule `O=C(NCc1ccc(Cl)cc1Cl)Nc1ccc2[nH]ncc2c1` has an IC50 of 220 nM.
Molecule `c1coc(CN2CCCC(Nc3ccc4[nH]ncc4c3)C2)c1` (stereo not drawn) has an IC50 of 65 nM.
Work on `c1cc(CN2CCCC(Nc3ccc4[nH]ncc4c3)C2)co1` (stereo not drawn) yielded an IC50 of 180 nM.
Molecule `O=C(NCc1c(Cl)cccc1Cl)Nc1ccc2[nH]ncc2c1` has an IC50 of 20 nM.
With `Clc1ccc(CN2CCC(Nc3ccc4[nH]ncc4c3)CC2)cc1` the IC50 was 290 nM.
For `O=C(Nc1ccc2[nH]ncc2c1)NC1CCN(Cc2ccccc2)CC1`, the IC50 was > 10000 nM.
Molecule `O=C(NCc1ccccc1)Nc1ccc2[nH]ncc2c1` has an IC50 of 260 nM.
In the case of `c1ccc(CN2CCC(Oc3ccc4[nH]ncc4c3)CC2)cc1`, the IC50 is reported as 100 nM.
Work on `O=C(NCc1c(F)cccc1F)Nc1ccc2[nH]ncc2c1` yielded an IC50 of 85 nM.
`c1ccc(CN2CCCC(Oc3ccc4[nH]ncc4c3)C2)cc1` (stereo not drawn) showed an IC50 of 10 nM.
For `COc1ccc(CN2CCCC(Nc3ccc4[nH]ncc4c3)C2)cc1` (stereo not drawn), the IC50 was 16 nM.
Work on `Cc1n[nH]c2ccc(NC3CCCN(Cc4ccccc4)C3)cc12` (stereo not drawn) yielded an IC50 of 150 nM.
Molecule `c1ccc(CN2CCC(Nc3ccc4[nH]ncc4c3)C2)cc1` (stereo not drawn) has an IC50 of 32 nM.
Molecule `Cc1ccc(CN2CCCC(Nc3ccc4[nH]ncc4c3)C2)cc1` (stereo not drawn) has an IC50 of 9 nM.
With `Clc1ccccc1CN1CCC(Nc2ccc3[nH]ncc3c2)C1` (stereo not drawn) the IC50 was 45 nM.
For `Clc1cccc(CN2CCCC(Nc3ccc4[nH]ncc4c3)C2)c1` (stereo not drawn), the IC50 was 19 nM.
`COc1cc(CN2CCCC(Nc3ccc4[nH]ncc4c3)C2)cc(OC)c1` (stereo not drawn) showed an IC50 of 80 nM.
Work on `O=[N+]([O-])c1ccc(CN2CCCC(Nc3ccc4[nH]ncc4c3)C2)cc1` (stereo not drawn) yielded an IC50 of 87 nM.
With `c1ccc(CN[C@H]2CC[C@@H](Nc3ccc4[nH]ncc4c3)CC2)cc1` the IC50 was 320 nM.
`Nc1cccc(CN2CCCC(Nc3ccc4[nH]ncc4c3)C2)c1` (stereo not drawn) gave an IC50 of 35 nM.
Work on `Clc1ccccc1CN1CCCC(Nc2ccc3[nH]ncc3c2)C1` (stereo not drawn) yielded an IC50 of 13 nM.
For `O=C(Nc1ccc2[nH]ncc2c1)C1CCCN(Cc2ccccc2)C1` (stereo not drawn), the IC50 was 18 nM.
With `Clc1ccc(CN2CCCC(Nc3ccc4[nH]ncc4c3)C2)cc1` (stereo not drawn) the IC50 was 11 nM.
With `O=C(Nc1ccc2[nH]ncc2c1)C1CCN(Cc2ccccc2)CC1` the IC50 was 136 nM.
In the case of `CC(C)CCN1CCCC(Nc2ccc3[nH]ncc3c2)C1` (stereo not drawn), the IC50 is reported as 340 nM.
With `Nc1ccccc1CN1CCCC(Nc2ccc3[nH]ncc3c2)C1` (stereo not drawn) the IC50 was 85 nM.

Test system: not listed separately
Test: Solubility in water
Type: physicochemical
`c1ccc(CN2CCC(Nc3ccc4[nH]ncc4c3)CC2)cc1` gave a solubility of 794 µg/mL (≈ 2590 µM).
`O=C(NCc1c(F)cccc1F)Nc1ccc2[nH]ncc2c1` gave a solubility of 5 µg/mL (≈ 16.5 µM).
